From PubChem BioAssay (NCI)
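Test compounds were applied to cells in 96-well plates for 48 hours at 5 doses. At the GI50, growth is halved. TGI: total growth inhibition.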

Experiments:
Assay in all cases: NCI-60 cell line screen, 48 h
RPMI-8226 leukemia = test system: RPMI-8226 leukemia
SR leukemia = test system: SR leukemia
OVCAR-5 ovarian = test system: OVCAR-5 ovarian
NCI-H226 lung = test system: NCI-H226 lung
M14 melanoma = test system: M14 melanoma
CAKI-1 renal = test system: CAKI-1 renal
HCC-2998 colon = test system: HCC-2998 colon
COLO 205 colon = test system: COLO 205 colon
U251 CNS = test system: U251 CNS

For `CC1(C)OC(=O)C(=C2CC(c3ccccc3)c3ccccc32)C(=O)O1` (stereo not given), the TGI (RPMI-8226 leukemia) was greater than 100 µM, the TGI (SR leukemia) was greater than 100 µM and the TGI (OVCAR-5 ovarian) was greater than 100 µM. It also gave a TGI (NCI-H226 lung) greater than 100 µM, a TGI (M14 melanoma) greater than 100 µM and a TGI (CAKI-1 renal) greater than 100 µM. It also gave a TGI (HCC-2998 colon) greater than 100 µM, a TGI (COLO 205 colon) greater than 100 µM and a TGI (U251 CNS) greater than 100 µM.

`Cc1ccc(C2=C(c3ccccc3)C(O)(c3ccc(C)cc3)C(c3ccccc3)=C2c2ccc(C)cc2)cc1` showed a TGI (RPMI-8226 leukemia) greater than 100 µM, a TGI (OVCAR-5 ovarian) greater than 100 µM and a TGI (M14 melanoma) greater than 100 µM. It also gave a TGI (CAKI-1 renal) greater than 100 µM, a TGI (HCC-2998 colon) greater than 100 µM and a TGI (COLO 205 colon) greater than 100 µM. The TGI (U251 CNS) was greater than 100 µM.

`COC(=O)NN1C(C)=C(C(=O)OC)C2(CCOC2=O)C1(C)O` (stereo not given) showed a TGI (RPMI-8226 leukemia) greater than 100 µM, a TGI (OVCAR-5 ovarian) greater than 100 µM and a TGI (NCI-H226 lung) greater than 100 µM. It also gave a TGI (M14 melanoma) greater than 100 µM, a TGI (CAKI-1 renal) greater than 100 µM and a TGI (HCC-2998 colon) greater than 100 µM. The TGI (COLO 205 colon) was greater than 100 µM and the TGI (U251 CNS) was greater than 100 µM.

With `COc1ccc(C(=O)O)c(Cc2ccc3ccccc3c2)c1` the TGI (RPMI-8226 leukemia) was greater than 100 µM, the TGI (SR leukemia) was greater than 100 µM and the TGI (OVCAR-5 ovarian) was greater than 100 µM. It also gave a TGI (NCI-H226 lung) greater than 100 µM, a TGI (M14 melanoma) greater than 100 µM and a TGI (CAKI-1 renal) greater than 100 µM. For the same compound, the TGI (COLO 205 colon) was greater than 100 µM and the TGI (U251 CNS) was greater than 100 µM.

With `CC1=C(c2cc(C(=O)Nc3nccs3)nc(NC#N)n2)Sc2ccccc2N1` the TGI (RPMI-8226 leukemia) was greater than 100 µM, the TGI (SR leukemia) was greater than 100 µM and the TGI (OVCAR-5 ovarian) was greater than 100 µM. The TGI (NCI-H226 lung) was greater than 100 µM, the TGI (M14 melanoma) was greater than 100 µM and the TGI (CAKI-1 renal) was greater than 100 µM. For the same compound, the TGI (COLO 205 colon) was greater than 100 µM and the TGI (U251 CNS) was greater than 100 µM.

In the case of `CC(Oc1ccc2cc(C(=O)c3ccccc3)c(=O)oc2c1)C(=O)O` (stereo not given), the TGI (SR leukemia) is reported as greater than 100 µM, the TGI (NCI-H226 lung) is reported as greater than 100 µM and the TGI (M14 melanoma) is reported as greater than 100 µM. It also gave a TGI (CAKI-1 renal) greater than 100 µM, a TGI (HCC-2998 colon) greater than 100 µM and a TGI (COLO 205 colon) greater than 100 µM. The TGI (U251 CNS) was greater than 100 µM.

In the case of `CCC(/C(=N\Nc1c(Cl)cc(Cl)cc1Cl)c1ccccc1)n1ccnc1C` (stereo not given), the TGI (RPMI-8226 leukemia) is reported as 41 µM, the TGI (OVCAR-5 ovarian) is reported as 21.2 µM and the TGI (NCI-H226 lung) is reported as 35 µM. The TGI (M14 melanoma) was 28.6 µM, the TGI (CAKI-1 renal) was 25.8 µM and the TGI (HCC-2998 colon) was 15.7 µM. The TGI (COLO 205 colon) was 24.1 µM and the TGI (U251 CNS) was 28.4 µM.

In the case of `O=CC1(C2(C=O)c3ccccc3-c3ccccc32)c2ccccc2-c2ccccc21`, the GI50 (SR leukemia) is reported as 1.65 µM, the TGI (SR leukemia) is reported as 3.43 µM and the GI50 (OVCAR-5 ovarian) is reported as 3.21 µM. The TGI (OVCAR-5 ovarian) was 6.34 µM, the GI50 (NCI-H226 lung) was 3.3 µM and the TGI (NCI-H226 lung) was 7.24 µM. It also gave a GI50 (CAKI-1 renal) of 1.27 µM, a TGI (CAKI-1 renal) of 3.62 µM and a GI50 (HCC-2998 colon) greater than 100 µM. For the same compound, the TGI (HCC-2998 colon) was greater than 100 µM, the GI50 (U251 CNS) was 2.23 µM and the TGI (U251 CNS) was 5.6 µM.

`Cc1cccc(NC(=O)CC#N)c1Cl` was tested, and the TGI (RPMI-8226 leukemia) was greater than 100 µM, the TGI (SR leukemia) was greater than 100 µM and the TGI (NCI-H226 lung) was greater than 100 µM. For the same compound, the TGI (M14 melanoma) was greater than 100 µM, the TGI (CAKI-1 renal) was greater than 100 µM and the TGI (U251 CNS) was greater than 100 µM.

Work on `CCSc1nc2n(c(=S)n1)CCN2C` yielded a TGI (RPMI-8226 leukemia) of 61.7 µM, a TGI (SR leukemia) of 29.9 µM and a TGI (OVCAR-5 ovarian) of 42.7 µM. It also gave a TGI (NCI-H226 lung) of 42.8 µM, a TGI (M14 melanoma) of 31.5 µM and a TGI (CAKI-1 renal) of 55.4 µM. For the same compound, the TGI (HCC-2998 colon) was 30.3 µM and the TGI (U251 CNS) was 41.2 µM.

`CCN(CC)CCOc1ccc(C(=C2CCCCC2)c2ccc(OCCN(CC)CC)cc2)cc1` was tested, and the TGI (RPMI-8226 leukemia) was 4.94 µM, the TGI (OVCAR-5 ovarian) was 3.37 µM and the TGI (NCI-H226 lung) was 4.26 µM. It also gave a TGI (M14 melanoma) of 2.91 µM, a TGI (CAKI-1 renal) of 3.7 µM and a TGI (HCC-2998 colon) of 2.62 µM. It also gave a TGI (COLO 205 colon) of 2.7 µM and a TGI (U251 CNS) of 3.1 µM.

Work on `CC(=O)NC(CCCCNC(=O)N(C)N=O)C(=O)NCc1ccccc1` (stereo not given) yielded a TGI (RPMI-8226 leukemia) greater than 100 µM, a TGI (OVCAR-5 ovarian) greater than 100 µM and a TGI (NCI-H226 lung) greater than 100 µM. The TGI (M14 melanoma) was greater than 100 µM, the TGI (CAKI-1 renal) was greater than 100 µM and the TGI (HCC-2998 colon) was greater than 100 µM. The TGI (COLO 205 colon) was greater than 100 µM and the TGI (U251 CNS) was greater than 100 µM.

`O=C(O)C1OC(Oc2cc(O)c3c(=O)cc(-c4ccc(O)cc4)oc3c2)C(O)C(O)C1O` (stereo not given) showed a TGI (OVCAR-5 ovarian) greater than 100 µM, a TGI (NCI-H226 lung) greater than 100 µM and a TGI (M14 melanoma) greater than 100 µM. For the same compound, the TGI (CAKI-1 renal) was greater than 100 µM, the TGI (HCC-2998 colon) was greater than 100 µM and the TGI (COLO 205 colon) was greater than 100 µM. The TGI (U251 CNS) was greater than 100 µM.

`CN(C)/C=N/c1nc2ncn(CCOC(=O)c3ccccc3)c2c(=O)[nH]1` was tested, and the TGI (RPMI-8226 leukemia) was greater than 100 µM, the TGI (SR leukemia) was greater than 100 µM and the TGI (OVCAR-5 ovarian) was greater than 100 µM. The TGI (NCI-H226 lung) was greater than 100 µM, the TGI (M14 melanoma) was greater than 100 µM and the TGI (CAKI-1 renal) was greater than 100 µM. It also gave a TGI (COLO 205 colon) greater than 100 µM and a TGI (U251 CNS) greater than 100 µM.

For `CC(O[Si](C)(C)C)C1C=CC(C)n2c(=O)n(-c3ccccc3)c(=O)n21` (stereo not given), the TGI (RPMI-8226 leukemia) was greater than 100 µM, the TGI (SR leukemia) was greater than 100 µM and the TGI (OVCAR-5 ovarian) was greater than 100 µM. It also gave a TGI (M14 melanoma) greater than 100 µM, a TGI (CAKI-1 renal) greater than 100 µM and a TGI (HCC-2998 colon) greater than 100 µM. It also gave a TGI (COLO 205 colon) greater than 100 µM and a TGI (U251 CNS) greater than 100 µM.

With `CSc1ccc2c(cc1=O)[C@@H](NC(=O)c1ccc(F)cc1)CCc1cc(O)c(O)c(O)c1-2` the TGI (RPMI-8226 leukemia) was greater than 100 µM, the TGI (OVCAR-5 ovarian) was greater than 100 µM and the TGI (NCI-H226 lung) was greater than 100 µM. It also gave a TGI (M14 melanoma) greater than 100 µM, a TGI (CAKI-1 renal) greater than 100 µM and a TGI (HCC-2998 colon) greater than 100 µM. The TGI (COLO 205 colon) was greater than 100 µM and the TGI (U251 CNS) was greater than 100 µM.

`ClC[Si]12OCCN(CCO1)CCO2` showed a TGI (RPMI-8226 leukemia) greater than 100 µM, a TGI (SR leukemia) greater than 100 µM and a TGI (OVCAR-5 ovarian) greater than 100 µM. It also gave a TGI (NCI-H226 lung) greater than 100 µM, a TGI (CAKI-1 renal) greater than 100 µM and a TGI (HCC-2998 colon) greater than 100 µM. It also gave a TGI (COLO 205 colon) greater than 100 µM and a TGI (U251 CNS) greater than 100 µM.

`O=c1/c(=C/c2ccc3c(c2)OCO3)sc2nnc(-c3ccco3)n12` gave a TGI (RPMI-8226 leukemia) greater than 100 µM, a TGI (OVCAR-5 ovarian) greater than 100 µM and a TGI (NCI-H226 lung) greater than 100 µM. It also gave a TGI (M14 melanoma) greater than 100 µM, a TGI (CAKI-1 renal) greater than 100 µM and a TGI (HCC-2998 colon) greater than 100 µM. The TGI (COLO 205 colon) was greater than 100 µM and the TGI (U251 CNS) was greater than 100 µM.

`Oc1cc2c(cc1O)-c1[nH]ncc1CC2` gave a TGI (SR leukemia) greater than 100 µM, a TGI (OVCAR-5 ovarian) greater than 100 µM and a TGI (NCI-H226 lung) of 69 µM. It also gave a TGI (M14 melanoma) greater than 100 µM, a TGI (CAKI-1 renal) greater than 100 µM and a TGI (HCC-2998 colon) of 50.7 µM. For the same compound, the TGI (COLO 205 colon) was 66.5 µM and the TGI (U251 CNS) was 44.6 µM.

In the case of `Cc1cc2c(cc1C)[n+](=O)c(C(=O)/C=C/c1ccccc1Cl)c(C)n2[O-]`, the TGI (RPMI-8226 leukemia) is reported as greater than 100 µM, the TGI (OVCAR-5 ovarian) is reported as greater than 100 µM and the TGI (NCI-H226 lung) is reported as greater than 100 µM. For the same compound, the TGI (M14 melanoma) was 51.7 µM, the TGI (CAKI-1 renal) was 43.2 µM and the TGI (HCC-2998 colon) was 34.2 µM. It also gave a TGI (COLO 205 colon) of 36.9 µM and a TGI (U251 CNS) of 84.4 µM.
